Marks after values point to notes of the source that are not given here.
Key:
[1] = system: beta2-microglobulin deficient (b2m−/−) mice; assay: Correction of hyperferremia in beta2-microglobulin deficient mice; type: in vivo, mouse; details: blood collection time not marked
Procedure: Female and male homozygous b2m−/− mice are supplied from Jackson Laboratories (B6.129P2-B2mtm1Unc/J, Stock Number: 002087) at age of 6 to 7 weeks and fed standard diet (Harlan Provimi Kliba 3436) ad libitum. Age and gender matched WT C57BL/6 mice are supplied by Charles River. To study the acute effects of ferroportin (Fpn) inhibitors in iron overload b2m−/− mice are treated with compounds or the corresponding amount of vehicle at a volume of 10 ml/kg body weight. Fpn inhibitor compounds are formulated in 0.5% methylcellulose/water or 20% cremophor EL/water and dosed p.o. in mice at 50 mg/kg body weight. WT controls received only vehicle. Three hours later, mice are pre-terminally anesthetized in isoflurane chambers and blood is collected by retro-orbital bleeding. Mice are sacrificed by cervical dislocation and spleens, livers and duodena are harvested and used for biomarker analysis. All experiments are performed in compliance with license approved by the responsible veterinarian authorities. Serum is isolated by centrifugation of blood into gel-containing microtainers (BD Biosciences) and serum iron is determined by the MULTIGENT Iron assay (Abbott Diagnostics, Cat. 6K95). Four to nine mice per group are used and one-way ANOVA with Bonferroni's multiple comparison test is applied to analyze the statistical differences between the experimental groups.
Blood is collected 1 (#) or 3 (##) hours after oral administration of the indicated doses of Fpn inhibitors to beta2-microglobulin deficient mice and serum iron concentrations are measured. Relative reduction (%) of serum iron levels are shown, which were calculated by subtracting the average of serum iron values of animals dosed with the Fpn inhibitor from that of vehicle-treated animals. The difference in average serum iron values between vehicle and compound treated groups was then divided by the average of serum iron of the vehicle control group and listed as percentage. Values are listed separately for female (♀) and male (♂) animals, because a marked sex-dependent difference in efficacy was noted. Statistically significant (2-way ANOVA with Bonferroni post test) differences observed between compound-treated and vehicle-treated groups are indicated (*** p<0.001; ** p<0.01, p<0.05).

[2] = system: beta2-microglobulin deficient (b2m−/−) mice; assay: Prevention of iron overload in beta2-microglobulin deficient mice; type: in vivo, mouse; details: 14 days
Procedure: In addition, feeding 3 week old b2m−/− mice a diet with low iron content (LID) immediately after weaning prevents liver iron loading by age of 6-7 weeks. The efficacy of the Fpn inhibitors to prevent liver iron accumulation in b2m−/− mice is investigated. Three weeks old b2−/− mice fed LID are dosed with either Fpn inhibitor or vehicle (methylcellulose; 10 ml/kg). Mice have access to drinking water supplemented with 1 mM ^58Fe(II)-sulfate and 10 mM ascorbic acid. Dosing of Fpn inhibitor or vehicle followed by exposure to iron-containing water is repeated for 14 days. Mice are euthanized and the liver and spleen iron contents are analyzed by ICP-OES (all iron isotopes) and liver tissue is also analyzed for ^58Fe concentration (ICP-MS).
Livers and spleens are collected after 14 day treatment (p.o.; b.i.d) of beta2-microglobulin deficient mice with the indicated doses of Fpn inhibitors. Total liver and spleen tissue iron concentrations are measured using ICP-OES and ^58Fe liver concentrations are determined with ICP-MS. Relative changes (%) of tissue iron levels are calculated by normalizing the difference between the averages of tissue iron values of animals dosed with the Fpn inhibitors and those of vehicle-treated animals with the average of vehicle controls.

Hbb th3/+ mice = assay: Mouse model of β-thalassemia intermedia (Hbb th3/+ mice); type: in vivo; details: for Decrease in RDW by 20/60 mg/kg compound / Decrease in ^58Fe spleen iron content by 20/60 mg/kg compound / Decrease in blood reticulocyte counts by 20/60 mg/kg compound / Decrease in leukocyte counts by 20/60 mg/kg compound / Decrease in serum erythropoietin by 20/60 mg/kg compound / Increase in blood erythrocyte counts by 20/60 mg/kg compound / Increase in hematocrit by 20/60 mg/kg compound / Prevention of liver ^58Fe loading by 20/60 mg/kg / Decrease in serum iron by 20/60 mg/kg compound / Decreased in ROS in bone marrow erythrocytes / Decrease in relative spleen weight by 20/60 mg/kg: % change to vehicle; for Correction of anemia at day 20-48 by 20/60 mg/kg: hemoglobin difference to vehicle; for Decrease in serum iron by 20/60 mg/kg compound: dosed for 3 h
Procedure: The efficacy of Fpn inhibitors is investigated using a mouse model of transfusion-independent β-thalassemia. Mice with heterozygous deletion of β 1 and β 2 globin genes (called Hbb th3/+ mice) develop transfusion-independent anemia, ineffective erythropoiesis, splenomegaly and secondary iron overload in spleen, liver and kidneys. […] Hbb th3/+ mice are dosed twice daily with either compound at 20 or 60 mg/kg or with methylcellulose (10 ml/kg, Sigma, Cat. 274429) as a vehicle. Between both doses mice have access to drinking water supplemented with 1 mM ^58Fe(II)-sulfate (Vifor Pharma, Batch No. ROR 3096) and 10 mM ascorbic acid (Sigma, Cat. 795437) for 6 h. The concentration of ^58Fe(II)-Sulfate supplied in the drinking water is adjusted to substitute for intake of standard rodent diet with iron content of 250 ppm. Water without ^58Fe(II)-Sulfate and ascorbic acid is provided during the remaining 18 h. Dosing of Fpn inhibitors or vehicle followed by exposure to iron-containing water is repeated for 20 to 46 days in individual experiments.
Additional hematologic parameters are measured in terminal blood using automated blood cell analyzer.
The inefficient erythropoiesis of Hbb th3/+ mice causes excessive proliferation of erythroid precursors in spleen, leading to splenomegaly.
Elevated erythropoietin levels in Hbb th3/+ mice induce overexpression of erythroferrone, an erythroid regulator hormone known to suppress hepcidin (Kautz L. et al, Nat. Genet., 2014). […] Erythroferrone is produced by erythrocyte precursors proliferating massively in spleens of Hbb th3/+ mice as a consequence of extramedullar erythropoiesis.
Increased iron demand due to inefficient erythropoiesis and chronically low hepcidin levels in patients with thalassemia causes organ iron loading and associated morbidities, such as hepatocellular carcinoma and heart failure (Rivella S. Haematologica, 2015). Hbb th3/+ mice absorb excessive amounts of iron as a consequence of inadequately low hepcidin levels relative to the high iron content in liver, spleen and kidney and increased ferroportin expression in duodenum (Gardenghi S., Blood, 2007).
Additionally, reactive oxygen species (ROS) are detected in bone marrow cells using a fluorescent indicator, CM-H2DCFDA (Thermo Fisher Scientific, Cat. C6827).
Data are expressed as difference to the vehicle control group for hemoglobin and as % change to the vehicle control group for all other parameter shown

[3] = 20 mg/kg twice daily for 20-46 days
[4] = 60 mg/kg twice daily for 20-46 days
[5] = first value of the pair (20 mg/kg; dose not printed in this line)
[6] = second value of the pair (60 mg/kg; dose not printed in this line)

Structure (SMILES)	Serum Iron Reduction (%) ([1]; female ♀, 20 mg/kg oral)	Serum Iron Reduction (%) ([1]; female ♀, 60 mg/kg oral)	Serum Iron Reduction (%) ([1]; male ♂, 20 mg/kg oral)	Serum Iron Reduction (%) ([1]; male ♂, 60 mg/kg oral)	Total Liver Iron Reduction (%) ([2]; female ♀, 20 mg/kg p.o. b.i.d.)	Total Spleen Iron Increase (%) ([2]; female ♀, 20 mg/kg p.o. b.i.d.)	^58Fe Liver Iron Reduction (%) ([2]; female ♀, 20 mg/kg p.o. b.i.d.)	Total Liver Iron Reduction (%) ([2]; female ♀, 60 mg/kg p.o. b.i.d.)	Total Spleen Iron Increase (%) ([2]; female ♀, 60 mg/kg p.o. b.i.d.)	^58Fe Liver Iron Reduction (%) ([2]; female ♀, 60 mg/kg p.o. b.i.d.)	Total Liver Iron Reduction (%) ([2]; male ♂, 20 mg/kg p.o. b.i.d.)	Total Spleen Iron Increase (%) ([2]; male ♂, 20 mg/kg p.o. b.i.d.)	^58Fe Liver Iron Reduction (%) ([2]; male ♂, 20 mg/kg p.o. b.i.d.)	Total Liver Iron Reduction (%) ([2]; male ♂, 60 mg/kg p.o. b.i.d.)	Total Spleen Iron Increase (%) ([2]; male ♂, 60 mg/kg p.o. b.i.d.)	^58Fe Liver Iron Reduction (%) ([2]; male ♂, 60 mg/kg p.o. b.i.d.)	Decrease in RDW by 20/60 mg/kg compound (Hbb th3/+ mice; [3]) [%]	Decrease in ^58Fe spleen iron content by 20/60 mg/kg compound (Hbb th3/+ mice; [3]) [%]	Decrease in blood reticulocyte counts by 20/60 mg/kg compound (Hbb th3/+ mice; [3]) [%]	Decrease in leukocyte counts by 20/60 mg/kg compound (Hbb th3/+ mice; [3]) [%]	also measured
O=C(NCc1ncccc1F)c1cnc(CCNCCc2nc3ccccc3[nH]2)o1 [Example Compound No. 1]	31** %	52** %	31** %	59** %	−1	21	4%	15	65	59%	16	28	−8	25	49	22	3	14	8	32	Decrease in serum erythropoietin by 20/60 mg/kg compound (Hbb th3/+ mice; [3]): 64%; Increase in blood erythrocyte counts by 20/60 mg/kg compound (Hbb th3/+ mice; [3]): 4%; Increase in hematocrit by 20/60 mg/kg compound (Hbb th3/+ mice; [3]): 0%; Prevention of liver ^58Fe loading by 20/60 mg/kg (Hbb th3/+ mice; [3]): 12%; Correction of anemia at day 20-48 by 20/60 mg/kg (Hbb th3/+ mice; 20 mg/kg twice daily): 6 g/L; Decrease in serum iron by 20/60 mg/kg compound (Hbb th3/+ mice; 20 mg/kg): 49%; Decrease in RDW by 20/60 mg/kg compound (Hbb th3/+ mice; [4]): 16%; Decrease in ^58Fe spleen iron content by 20/60 mg/kg compound (Hbb th3/+ mice; [4]): 48%; Decrease in blood reticulocyte counts by 20/60 mg/kg compound (Hbb th3/+ mice; [4]): 39%; Decrease in leukocyte counts by 20/60 mg/kg compound (Hbb th3/+ mice; [4]): 44%; Decrease in serum erythropoietin by 20/60 mg/kg compound (Hbb th3/+ mice; [4]): 78%; Increase in blood erythrocyte counts by 20/60 mg/kg compound (Hbb th3/+ mice; [4]): 8%; Increase in hematocrit by 20/60 mg/kg compound (Hbb th3/+ mice; [4]): 4%; Prevention of liver ^58Fe loading by 20/60 mg/kg (Hbb th3/+ mice; [4]): 40%; Correction of anemia at day 20-48 by 20/60 mg/kg (Hbb th3/+ mice; 60 mg/kg twice daily): 20 g/L; Decrease in serum iron by 20/60 mg/kg compound (Hbb th3/+ mice; 60 mg/kg): 66%; Decreased in ROS in bone marrow erythrocytes (Hbb th3/+ mice; [5]): 20%; Decreased in ROS in bone marrow erythrocytes (Hbb th3/+ mice; [6]): 45%
O=C(NCc1ncccc1F)c1cnc(C2CN(CCc3nc4ccccc4[nH]3)C2)o1 [Example Compound No. 2]	27%	57** %	29%	66** %	26	13	60** %	45	1	77*** %	10	18	24	28	−20	70	0	13	0	29	Decrease in relative spleen weight by 20/60 mg/kg (Hbb th3/+ mice; [3]): 16%; Decrease in serum erythropoietin by 20/60 mg/kg compound (Hbb th3/+ mice; [3]): 4%; Increase in blood erythrocyte counts by 20/60 mg/kg compound (Hbb th3/+ mice; [3]): 0%; Increase in hematocrit by 20/60 mg/kg compound (Hbb th3/+ mice; [3]): 0%; Prevention of liver ^58Fe loading by 20/60 mg/kg (Hbb th3/+ mice; [3]): 14%; Correction of anemia at day 20-48 by 20/60 mg/kg (Hbb th3/+ mice; 20 mg/kg twice daily): 3 g/L; Decrease in serum iron by 20/60 mg/kg compound (Hbb th3/+ mice; 20 mg/kg): 50%; Decrease in RDW by 20/60 mg/kg compound (Hbb th3/+ mice; [4]): 15%; Decrease in ^58Fe spleen iron content by 20/60 mg/kg compound (Hbb th3/+ mice; [4]): 40%; Decrease in blood reticulocyte counts by 20/60 mg/kg compound (Hbb th3/+ mice; [4]): 11%; Decrease in leukocyte counts by 20/60 mg/kg compound (Hbb th3/+ mice; [4]): 55%; Decrease in relative spleen weight by 20/60 mg/kg (Hbb th3/+ mice; [4]): 47%; Decrease in serum erythropoietin by 20/60 mg/kg compound (Hbb th3/+ mice; [4]): 27%; Increase in blood erythrocyte counts by 20/60 mg/kg compound (Hbb th3/+ mice; [4]): 33%; Increase in hematocrit by 20/60 mg/kg compound (Hbb th3/+ mice; [4]): 15%; Prevention of liver ^58Fe loading by 20/60 mg/kg (Hbb th3/+ mice; [4]): 47%; Correction of anemia at day 20-48 by 20/60 mg/kg (Hbb th3/+ mice; 60 mg/kg twice daily): 11 g/L; Decrease in serum iron by 20/60 mg/kg compound (Hbb th3/+ mice; 60 mg/kg): 69%; Decreased in ROS in bone marrow erythrocytes (Hbb th3/+ mice; [5]): 13%; Decreased in ROS in bone marrow erythrocytes (Hbb th3/+ mice; [6]): 65%

From US11129820B2, “Ferroportin-inhibitor salts” (Vifor (International) AG, priority 2017, dated 2021)
